Consider 8 molecules from ChEMBL document CHEMBL4257517, “Elucidation of fluorine's impact on pKa and in vitro Pgp-mediated efflux for a series of PDE9 inhibitors” (Medchemcomm, 2018).

SMILES strings stand for the structures.

For series [1], the target named is T1, High affinity cGMP-specific 3',5'-cyclic phosphodiesterase 9A (Homo sapiens, UniProt O76083). The experiment in a line: Inhibition of PDE9 (unknown origin) using [3H]-cGMP as substrate after 1 hr by scintillation counting method.
Series [2] concerns the target T1, High affinity cGMP-specific 3',5'-cyclic phosphodiesterase 9A. Kind of series: Inhibition of PDE9 (unknown origin) at 10 uM using [3H]-cGMP as substrate after 1 hr by scintillation counting method relative to control.
A short description of series [3]: Basic dissociation constant, pKa of compound at 10 uM by UV/Vis spectroscopy. The class given is physicochemical.
Series [4] is described as follows: Acidic dissociation constant, pKa of compound at 10 uM by UV/Vis spectroscopy. Format: physicochemical.

T1 sequence (O76083 whole entry): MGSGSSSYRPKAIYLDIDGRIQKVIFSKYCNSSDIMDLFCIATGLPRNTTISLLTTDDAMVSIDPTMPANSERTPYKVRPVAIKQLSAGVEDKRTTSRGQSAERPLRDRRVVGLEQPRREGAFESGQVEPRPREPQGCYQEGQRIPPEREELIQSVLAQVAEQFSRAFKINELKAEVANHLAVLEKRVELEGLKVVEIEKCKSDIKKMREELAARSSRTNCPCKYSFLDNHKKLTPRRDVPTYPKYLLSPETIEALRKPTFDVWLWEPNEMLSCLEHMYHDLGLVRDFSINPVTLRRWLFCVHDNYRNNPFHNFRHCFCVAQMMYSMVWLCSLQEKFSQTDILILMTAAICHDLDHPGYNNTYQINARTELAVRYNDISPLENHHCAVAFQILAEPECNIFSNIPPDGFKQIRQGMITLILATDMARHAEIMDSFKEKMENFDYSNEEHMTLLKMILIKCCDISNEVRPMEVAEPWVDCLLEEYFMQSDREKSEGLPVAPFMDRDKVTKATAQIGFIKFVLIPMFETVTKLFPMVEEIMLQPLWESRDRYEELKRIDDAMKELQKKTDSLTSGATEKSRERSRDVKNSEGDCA

In the case of `C[C@@H]1CN(Cc2ccc(F)cc2)C[C@H]1c1nc2c(cnn2C2CCOCC2)c(=O)[nH]1`, the IC50 (in general, the concentration at which inhibition is half-maximal) in series [1] amounted to 17 nM. For the molecule `Cc1ncc(CN2C[C@@H](C)[C@](F)(c3nc4c(cnn4C4CCOCC4)c(=O)n3C)C2)cn1`, the inhibition – broadly, the percentage by which the read-out fell short of the control – in series [2] is 14%. `Cc1cnc(CN2C[C@@H](C)[C@H](c3nc4c(cnn4C4CCOCC4)c(=O)n3C)C2)cn1`: the inhibition in series [2] is 66%.

In series [1], `Cc1ncc(CN2C[C@@H](C)[C@H](c3nc4c(cnn4C4CCOCC4)c(=O)[nH]3)C2)cn1` returned an IC50 of 36 nM. That is a double-digit nanomolar value. Regarding `C[C@@H]1CN(Cc2ncccn2)C[C@@]1(F)c1nc2c(cnn2C2CCOCC2)c(=O)[nH]1`, the pKa (commonly the pH at which an ionisable group is half protonated) at 10 µM in series [3] was 5.6; in series [4], 8.4. `Cc1cnc(CN2C[C@@H](C)[C@](F)(c3nc4c(cnn4C4CCOCC4)c(=O)n3C)C2)cn1`: the inhibition in series [2] was 22%. For the molecule `C[C@@H]1CN(Cc2ncccn2)C[C@H]1c1nc2c(cnn2C2CCOCC2)c(=O)[nH]1` [EDELINONTRINE], the pKa at 10 µM is 6.8 in series [3] and 9.6 in series [4]. The molecule `Cc1cnc(CN2C[C@@H](C)[C@H](c3nc4c(cnn4C4CCOCC4)c(=O)[nH]3)C2)cn1` had an IC50 in series [1] of 59 nM.
